Values after ≈ are worked out from the molar mass of the structure shown. Read-outs that look alike come from different tables or passages of the source. Marks after values point to notes of the source that are not given here.
What was measured:
hERG ion channel = hERG ion channel (Homo sapiens, UniProt Q12809); experiment: hERG ion channel block, patch clamp assay
hP2Y14R = molecular target: T1, hP2Y14R (Homo sapiens, UniProt Q15391); experiment: Inhibition of fluorescent antagonist binding in whole hP2Y14R-expressing CHO cells (flow cytometry)
T1 construct: expressed in transfected cells; host or cells: CHO cells
T1 sequence (Q15391 1-338): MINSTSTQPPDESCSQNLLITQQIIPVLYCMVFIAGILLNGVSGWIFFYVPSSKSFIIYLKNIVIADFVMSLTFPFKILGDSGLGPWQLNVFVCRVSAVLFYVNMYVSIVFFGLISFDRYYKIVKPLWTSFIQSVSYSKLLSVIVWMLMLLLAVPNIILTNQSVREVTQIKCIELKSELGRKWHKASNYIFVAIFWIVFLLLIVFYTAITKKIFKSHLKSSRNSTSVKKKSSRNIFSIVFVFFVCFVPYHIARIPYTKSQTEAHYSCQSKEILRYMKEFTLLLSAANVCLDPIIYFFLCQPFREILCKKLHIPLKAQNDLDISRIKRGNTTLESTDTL

[1] = Aqueous solubility, pION method
mP2Y14R = molecular target: T2, mP2Y14R (Mus musculus, UniProt Q9ESG6); experiment: cell-based; conditions: for affinity at the mP2Y14R vs the human homologue: comparison of species, in words
T2 sequence (Q9ESG6 1-338): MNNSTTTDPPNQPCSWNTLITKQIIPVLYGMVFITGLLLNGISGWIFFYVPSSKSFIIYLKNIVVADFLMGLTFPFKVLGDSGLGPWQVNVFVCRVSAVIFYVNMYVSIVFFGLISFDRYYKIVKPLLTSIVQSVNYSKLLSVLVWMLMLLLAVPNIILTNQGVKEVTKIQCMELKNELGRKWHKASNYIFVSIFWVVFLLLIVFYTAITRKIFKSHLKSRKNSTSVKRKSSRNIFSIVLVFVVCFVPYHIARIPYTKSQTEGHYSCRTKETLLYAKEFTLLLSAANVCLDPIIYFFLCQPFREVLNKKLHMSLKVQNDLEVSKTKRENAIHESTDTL
From the text: Desirably, receptor affinity is maintained across species, facilitating performance in in vivo preclinical testing in small animals, with the mouse being the most commonly used species in initial evaluation.

[2] = HPLC-based lipophilicity (Log D7.4); conditions: for chromatographic logD: pH 7.4
PLE = experiment: Esterase cleavage of prodrugs in the presence of PLE; type: in vitro ADME; conditions: pH 7.3, aqueous medium, PLE, 37° C.
[3] = system: allergen-induced airway inflammation; experiment: Ovalbumin/Aspergillus mouse asthma model (BALF leukocytes); conditions: 20 μmol/kg, i.p.
[4] = system: CCI-induced mechano-allodynia; experiment: Chronic constriction injury (CCI) mouse model of neuropathic pain; conditions: 10 μmol/kg, i.p., day 7 post-injury
[5] = Table 6, fluorescent hP2Y14R antagonist (3), read-out: hP2Y14R, IC50
[6] = read-out: mP2Y14R, IC50, Table 6, whole mP2Y14R-HEK cells, 200 nM of 3, mean ± SEM, n = 3-6
[7] = Table 1, fluorescent antagonist 2, hP2Y14R-CHO cells, 3-4 determinations, read-out: IC50, hP2Y14R (μM, mean ± SEM)
[8] = read-out: mP2Y14R, IC50, Table 2, tracer 2 (20 nM, 45 min), HEK293 cells
[9] = Table 2, whole hP2Y14R-CHO cells, 20 nM fluorescent antagonist 3, mean+SEM, n = 3-6, read-out: IC50

Sequence of hERG ion channel (Q12809 whole entry): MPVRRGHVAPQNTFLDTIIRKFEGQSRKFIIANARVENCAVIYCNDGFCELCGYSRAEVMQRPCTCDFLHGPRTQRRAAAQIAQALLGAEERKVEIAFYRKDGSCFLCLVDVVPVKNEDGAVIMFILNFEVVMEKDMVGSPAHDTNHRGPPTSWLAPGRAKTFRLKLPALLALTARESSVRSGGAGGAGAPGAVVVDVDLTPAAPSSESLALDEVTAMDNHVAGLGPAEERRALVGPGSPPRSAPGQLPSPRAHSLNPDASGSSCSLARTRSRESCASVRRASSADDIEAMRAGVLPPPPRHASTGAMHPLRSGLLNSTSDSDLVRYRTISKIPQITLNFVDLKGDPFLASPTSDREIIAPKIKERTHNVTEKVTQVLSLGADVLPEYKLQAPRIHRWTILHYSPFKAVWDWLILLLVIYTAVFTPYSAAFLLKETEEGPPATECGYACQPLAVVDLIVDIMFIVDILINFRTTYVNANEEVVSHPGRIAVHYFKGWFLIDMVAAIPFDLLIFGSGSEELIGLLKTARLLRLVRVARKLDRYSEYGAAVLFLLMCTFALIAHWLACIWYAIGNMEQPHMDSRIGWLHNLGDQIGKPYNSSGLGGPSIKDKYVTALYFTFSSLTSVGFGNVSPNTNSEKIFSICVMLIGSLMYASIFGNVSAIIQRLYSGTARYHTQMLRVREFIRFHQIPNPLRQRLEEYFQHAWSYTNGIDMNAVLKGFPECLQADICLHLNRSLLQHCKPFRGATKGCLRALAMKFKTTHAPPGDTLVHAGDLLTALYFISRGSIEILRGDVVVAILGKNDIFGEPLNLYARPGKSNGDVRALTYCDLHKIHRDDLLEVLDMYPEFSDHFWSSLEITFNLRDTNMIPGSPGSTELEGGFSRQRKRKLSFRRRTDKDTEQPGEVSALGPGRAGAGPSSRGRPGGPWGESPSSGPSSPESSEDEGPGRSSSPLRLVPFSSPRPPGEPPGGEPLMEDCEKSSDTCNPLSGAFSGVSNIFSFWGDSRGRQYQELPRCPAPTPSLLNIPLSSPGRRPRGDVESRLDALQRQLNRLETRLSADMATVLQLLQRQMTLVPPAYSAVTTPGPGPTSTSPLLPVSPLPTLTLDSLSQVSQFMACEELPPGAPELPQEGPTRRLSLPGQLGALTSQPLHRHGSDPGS

CC(C)(C)OC(=O)NCCCc1ccc(-c2cc(C(=O)O)cc(-n3cc(-c4ccc(C(F)(F)F)cc4)nn3)c2)cc1 [Compound 20, 4′-(3-((tert-Butoxycarbonyl)amino)propyl)-5-(4-(4-(trifluoromethyl)phenyl)-1H-1,2,3-triazol-1-yl)-[1,1′-biphenyl]-3-carboxylic acid]
EC50 (hERG ion channel): 18 µM

O=C(O)c1cc(-c2ccc([C@@H]3C[C@@H]4C[C@H]3C(=O)N4)cc2)c2ccc(-c3ccc(C(F)(F)F)cc3)cc2c1 [Compound 120, 4-(4-((1R,4R,5R)-3-Oxo-2-azabicyclo[2.2.1]heptan-5-yl)phenyl)-7-(4-(trifluoromethyl)phenyl)-2-naphthoic acid]
IC50 (hP2Y14R; [5]): 0.0395 ± 0.0098 µM
Solubility (ug/mL) pH 4 [1]: 0.31 ± 0.14 ug/mL
Solubility (ug/mL) pH 7.4 [1]: 3.42 ± 0.46 ug/mL
EC50 (hERG ion channel; read-out: (EC50), μM for stimulation of hERG channel activity, patch clamp, Table 8): 18.1 µM
IC50 (mP2Y14R; [6]): 26.2 ± 10.7 nM

CC(=O)N1C[C@H]2C[C@@H]1C[C@@H]2c1ccc(-c2cc(C(=O)O)cc3cc(-c4ccc(C(F)(F)F)cc4)ccc23)cc1 [Compound 118, 4-(4-((1S,4S,5S)-2-Acetyl-2-azabicyclo[2.2.1]heptan-5-yl)phenyl)-7-(4-(trifluoromethyl)phenyl)-2-naphthoic acid]
IC50 (hP2Y14R; [5]): 0.107 ± 0.013 µM
Solubility (ug/mL) pH 7.4 [1]: 1.86 ± 0.05 ug/mL
IC50 (mP2Y14R; [6]): 102 ± 39 nM
chromatographic logD [2]: 0.921 ± 0.034

NCC#Cc1ccc(-c2cc(C(=O)O)cc(-n3cc(-c4ccc(C(F)(F)F)cc4)nn3)c2)cc1 [Compound 19, 4′-(3-Aminoprop-1-yn-1-yl)-5-(4-(4-(trifluoromethyl)phenyl)-1H-1,2,3-triazol-1-yl)-[1,1′-biphenyl]-3-carboxylic acid]
IC50 (hP2Y14R; [7]): 0.308 ± 0.063 µM
affinity at the mP2Y14R vs the human homologue (mP2Y14R): nearly the same affinity in the two species
IC50 (mP2Y14R; [8]): 375 ± 175 nM

CN(C)C(=O)COC(=O)c1cc(-c2ccc(C3CCNCC3)cc2)cc(-n2cc(-c3ccc(C(F)(F)F)cc3)nn2)c1 [Compound 37a, 2-(Dimethylamino)-2-oxoethyl 4′-(piperidin-4-yl)-5-(4-(4-(trifluoromethyl)phenyl)-1H-1,2,3-triazol-1-yl)-[1,1′-biphenyl]-3-carboxylate]
t1/2 (min, mean ± SEM) for esterase cleavage (PLE): most rapidly cleaved
lymphocyte count in the BALF [3]: trended higher than in vehicle control

N[C@@H]1C[C@H](C(=O)O)[C@@H](c2ccc(-c3cc(C(=O)O)cc4cc(-c5ccc(C(F)(F)F)cc5)ccc34)cc2)C1 [Compound 138, 4-(4-((1S,2S,4S)-4-Amino-2-carboxycyclopentyl)phenyl)-7-(4-(trifluoromethyl)phenyl)-2-naphthoic acid]
IC50 (hP2Y14R; [5]): 0.0496 ± 0.0135 µM
IC50 (mP2Y14R; [6]): 40.9 ± 6.3 nM

O=C(O)c1cc(-c2ccc([C@]3(O)[C@@H]4CC[C@H]3CNC4)cc2)c2ccc(-c3ccc(C(F)(F)F)cc3)cc2c1 [Compound 131, 4-(4-((1R,5S,8r)-8-Hydroxy-3-azabicyclo[3.2.1]octan-8-yl)phenyl)-7-(4-(trifluoromethyl)phenyl)-2-naphthoic acid]
IC50 (hP2Y14R): 0.0213 ± 0.0011 µM
solubility ([1]; pH 4, aqueous buffer): 2.32 ± 0.25 µg/mL (≈ 4.48 µM)
solubility ([1]; pH 7.4, aqueous buffer): 0.54 ± 0.09 µg/mL (≈ 1.04 µM)
IC50 (hERG ion channel): > 30000 nM
IC50 (mP2Y14R): 15.5 ± 3.3 nM
chromatographic logD [2]: 1.2 ± 0.01

NCCCNC(=O)c1ccc(-c2cc(C(=O)O)cc(-n3cc(-c4ccc(C(F)(F)F)cc4)nn3)c2)cc1 [Compound 14, 4′-((3-Aminopropyl)carbamoyl)-5-(4-(4-(trifluoromethyl)phenyl)-1H-1,2,3-triazol-1-yl)-[1,1′-biphenyl]-3-carboxylic acid]
IC50 (hP2Y14R; [7]): 0.588 ± 0.043 µM
reversal of mechano-allodynia (figure legend) [4]: reversal of established mechano-allodynia

O=C(O)c1cc(-c2ccc([C@@H]3C[C@@H]4C[C@H]3CN4)cc2)c2ccc(-c3ccc(C(F)(F)F)cc3)cc2c1 [Compound 115, 4-(4-((1R,4R,5R)-2-Azabicyclo[2.2.1]heptan-5-yl)phenyl)-7-(4-(trifluoromethyl)phenyl)-2-naphthoic acid]
IC50 (hP2Y14R; [9]): 0.00862 ± 0.00211 µM
IC50 (hERG ion channel): > 30000 nM

O=C(O)c1cc(-c2ccc(-c3cc(CO)on3)cc2)cc(-n2cc(-c3ccc(C(F)(F)F)cc3)nn2)c1 [Compound 29, 4′-(5-(Hydroxymethyl)isoxazol-3-yl)-5-(4-(4-(trifluoromethyl)phenyl)-1H-1,2,3-triazol-1-yl)-[1,1′-biphenyl]-3-carboxylic acid]
IC50 (hP2Y14R; Table 2, tracer 2 (20 nM, 45 min), CHO cells, read-out: hP2Y14R, IC50): 0.296 ± 0.013 µM
affinity at the mP2Y14R vs the human homologue (mP2Y14R): slightly enhanced affinity
IC50 (mP2Y14R; [8]): 184 ± 24 nM

O=C(O)c1cc(-c2ccc([C@@H]3C[C@H]4CN[C@@H]3C4)cc2)c2ccc(-c3ccc(C(F)(F)F)cc3)cc2c1 [Compound 116, 4-(4-((1R,4R,6S)-2-Azabicyclo[2.2.1]heptan-6-yl)phenyl)-7-(4-(trifluoromethyl)phenyl)-2-naphthoic acid]
IC50 (hP2Y14R; [9]): 0.0098 ± 0.0003 µM
Solubility (ug/mL) pH 4 [1]: 1.45 ± 0.05 ug/mL
Solubility (ug/mL) pH 7.4 [1]: 0.40 ± 0.13 ug/mL
IC50 (hERG ion channel): > 30000 nM
chromatographic logD [2]: 2.11 ± 0.06

N[C@H]1C[C@@H](CO)[C@H](c2ccc(-c3cc(C(=O)O)cc4cc(-c5ccc(C(F)(F)F)cc5)ccc34)cc2)C1 [Compound 135, 4-(4-((1R,2R,4R)-4-Amino-2-(hydroxymethyl)cyclopentyl)phenyl)-7-(4-(trifluoromethyl)phenyl)-2-naphthoic acid]
IC50 (hP2Y14R; [9]): 0.0126 ± 0.0019 µM
Solubility (ug/mL) pH 4 [1]: 4.97 ± 0.11 ug/mL
Solubility (ug/mL) pH 7.4 [1]: 0.66 ± 0.02 ug/mL
IC50 (hERG ion channel): > 30000 nM
chromatographic logD [2]: 0.957 ± 0.046

O=C(O)c1cc(-c2ccc([C@H]3C[C@H]4C[C@@H]3CN4)cc2)c2ccc(-c3ccc(C(F)(F)F)cc3)cc2c1 (racemic) [Compound 112, rac-4-(4-((1S,4S,5S)-2-Azabicyclo[2.2.1]heptan-5-yl)phenyl)-7-(4-(trifluoromethyl)phenyl)-2-naphthoic acid]
IC50 (hP2Y14R): 0.0059 ± 0.0007 µM
solubility ([1]; pH 7.4, aqueous buffer): 0.47 ± 0.06 µg/mL (≈ 0.964 µM)
chromatographic logD [2]: 1.95 ± 0.01

O=C(O)c1cc(-c2ccc(C3C4CCC3CNC4)cc2)c2ccc(-c3ccc(C(F)(F)F)cc3)cc2c1 (centres unmarked) [Compound 129, 4-(4-(3-Azabicyclo[3.2.1]octan-8-yl)phenyl)-7-(4-(trifluoromethyl)phenyl)-2-naphthoic acid]
IC50 (hP2Y14R; [9]): 0.0383 ± 0.002 µM
Solubility (ug/mL) pH 4 [1]: 0.38 ± 0.04 ug/mL
Solubility (ug/mL) pH 7.4 [1]: 0.13 ± 0.00 ug/mL
Log D7.4 ([2]; calculated from retention factor difference between ligands and 1 (k = 3.41)): 2.33 ± 0.09^f

CN1C[C@H]2CC[C@@H](C1)[C@]2(O)c1ccc(-c2cc(C(=O)O)cc3cc(-c4ccc(C(F)(F)F)cc4)ccc23)cc1 [Compound 132, 4-(4-((1R,5S,8r)-8-Hydroxy-3-methyl-3-azabicyclo[3.2.1]octan-8-yl)phenyl)-7-(4-(trifluoromethyl)phenyl)-2-naphthoic acid]
IC50 (hP2Y14R): 0.0446 ± 0.0017 µM
solubility ([1]; pH 4, aqueous buffer): 1.81 ± 0.05 µg/mL (≈ 3.4 µM)
solubility ([1]; pH 7.4, aqueous buffer): 0.88 ± 0.09 µg/mL (≈ 1.66 µM)
chromatographic logD [2]: 1.37 ± 0.02

N[C@@H]1C[C@H](CO)[C@@H](c2ccc(-c3cc(C(=O)O)cc4cc(-c5ccc(C(F)(F)F)cc5)ccc34)cc2)C1 [Compound 134, 4-(4-((1S,2S,4S)-4-Amino-2-(hydroxymethyl)cyclopentyl)phenyl)-7-(4-(trifluoromethyl)phenyl)-2-naphthoic acid]
IC50 (hP2Y14R; [5]): 0.0108 ± 0.0021 µM
IC50 (hERG ion channel): > 30000 nM
IC50 (mP2Y14R; [6]): 17.9 ± 2.6 nM

N[C@@H]1C[C@H](C(=O)O)C[C@H]1c1ccc(-c2cc(C(=O)O)cc3cc(-c4ccc(C(F)(F)F)cc4)ccc23)cc1 [Compound 140, 4-(4-((1S,2R,4R)-2-Amino-4-carboxycyclopentyl)phenyl)-7-(4-(trifluoromethyl)phenyl)-2-naphthoic acid]
IC50 (hP2Y14R; [9]): 0.165 ± 0.051 µM
Solubility (ug/mL) pH 4 [1]: 0.34 ± 0.07 ug/mL
Solubility (ug/mL) pH 7.4 [1]: 3.92 ± 0.10 ug/mL
Log D7.4 ([2]; HPLC-based lipophilicity): −0.478 ± 0.050

O=C(O)c1cc(-c2ccc([C@@]34CCNC[C@@H]3C4)cc2)c2ccc(-c3ccc(C(F)(F)F)cc3)cc2c1 (racemic) [Compound 108, 4-(4-(3-Azabicyclo[4.1.0]heptan-6-yl)phenyl)-7-(4-(trifluoromethyl)phenyl)-2-naphthoic acid]
IC50 (hP2Y14R): 0.0455 ± 0.0072 µM
solubility ([1]; pH 4, aqueous buffer): 1.32 ± 0.17 µg/mL (≈ 2.71 µM)
solubility ([1]; pH 7.4, aqueous buffer): 0.17 ± 0.01 µg/mL (≈ 0.349 µM)
chromatographic logD [2]: 2.44 ± 0.06
